Earlier results, collected in patent US6280768A, “Berberine alkaloids as a treatment for chronic protozoally induced diarrhea” (PRM Pharmaceuticals, Inc., priority 1997, dated 2001).

What was measured:
E. intestinalis = conditions: cited from earlier work
E. bieneusi = conditions: cited from earlier work
Enterocytozoon bieneusi = conditions: cited from earlier work
microsporidia = conditions: some AIDS patients; cited from earlier work
microsporidiosis = conditions: cited from earlier work

CCCSc1ccc2nc(NC(=O)OC)[nH]c2c1 [albendazole]
clearing E. intestinalis from the stools (E. intestinalis; five AIDS patients): initially effective in clearing E. intestinalis from the stools | patients with spores of E. intestinalis again detected in stools (E. intestinalis; followed for more than one month): two of four patients | duration of relief (E. intestinalis; human, in vivo): relief was only temporary | relapse during maintenance therapy (E. intestinalis; human, in vivo): Relapse occurred in one patient | E. bieneusi spores in small bowel biopsies (E. bieneusi; following treatment): spores were still present | symptoms and parasite burden (E. bieneusi; some of 29 patients): improved symptoms and reduced the parasite burden in some of their 29 patients | reduction in parasite load (Enterocytozoon bieneusi; after oral treatment): no significant reduction in parasite load | changes in the parasite (Enterocytozoon bieneusi; human, in vivo): degenerative changes in the parasite | patients relapsed within one month (Enterocytozoon bieneusi; human, in vivo): Four of five patients relapsed within one month | relapse of the fifth patient (Enterocytozoon bieneusi; human, in vivo): the fifth patient relapsed within two months | resolution of chronic diarrhea (Enterocytozoon bieneusi; six AIDS patients): effective in resolving the chronic diarrhea of six AIDS patients | relief of diarrhea (microsporidia): temporarily relieve the diarrhea of some AIDS patients | remission of diarrhea (microsporidiosis; 18 AIDS patients): 70% | arrest of parasite development (microsporidiosis; human, in vivo): did not completely arrest development | rate of parasite reproduction (microsporidiosis; interfering with tubulin polymerization): slow the rate of parasite reproduction | parasite load (microsporidiosis; patients who responded): reduction in parasite load in those patients who responded
